In the METLIN SMRT retention time set (Domingo-Almenara et al. 2019):

Experiment: gradient 5% acetonitrile 3 min, to 50% in 2 min, to 85% in 15 min, held 3 min, 100 µL/min
Details: column: Zorbax Extend-C18 2.1 x 50 mm; eluents: water / acetonitrile, 0.1% formic acid
Outline: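 Pure standards were analyzed in mixtures of ~100 molecules using HPLC coupled to a quadrupole time-of-flight mass spectrometer, in both positive and negative ionization mode. Separation used a Zorbax Extend-C18 column (2.1 × 50 mm, 1.8 μm) at 100 μL/min, with water and acetonitrile each containing 0.1% formic acid. Dead and dwell volumes were 40 μL and 900 μL, and data were collected over 3 months. Retention time was read from computationally picked adduct peaks, each inspected manually.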

| RP-LC retention time [s] | SMILES |
| --- | --- |
| 645 | Cn1ncc2c3ccccc3n(CCCC(=O)NCCN3CCCCCC3)c2c1=O |
| 947 | CCOC(=O)c1cc(S(=O)(=O)N2CCCC2C(=O)Nc2nc3ccc(OC)cc3s2)cn1C (stereo not given) |
| 662 | CCn1nc(C)c(CCNC(=O)c2ccc3nc(C(C)C)oc3c2)c1C |
| 1050 | COc1ccc(-n2c(=O)c(C(=O)NCc3ccco3)c(O)c3cccnc32)cc1 |
| 1130 | O=S(=O)(c1ccc(F)cc1F)N1CCC(c2noc(-c3ccc(F)cc3)n2)CC1 |
| 664 | CCNc1cc(N2CCCC(CCC(=O)N3CCCC(C(=O)OCC)C3)C2)ncn1 (stereo not given) |
| 682 | COc1ccc(OC)c(NC(=O)CN2C(=O)COc3ccc(C(=O)N4CCCC4)cc32)c1 |
| 786 | COc1ccccc1N1CCN(C(=O)Cn2ccc3ccc(-c4nnc(C)o4)cc32)CC1 |
| 969 | Cc1cc(C(=O)CSc2nnnn2-c2ccccc2)c(C)n1Cc1ccco1 |
| 994 | CN(Cc1ccccc1)C(=O)CN1c2ccc(F)cc2-c2ccccc2S1(=O)=O |
| 899 | COc1cc(NC(=O)N2CCOc3ccc(Cl)cc32)cc(OC)c1OC |
| 960 | O=C1C2N=NN(Cc3nc(-c4ccccc4Br)no3)C2C(=O)N1c1ccc(F)cc1 (stereo not given) |
| 995 | Cn1cc(C(=O)NC2CCCCCC2)c2nn(-c3ccccc3)c(=O)c-2c1 |
| 756 | COc1ccc(S(=O)(=O)N2CCN(c3cc(C)nc(NC4CCCCC4)n3)CC2)cc1OC |
| 785 | CCC(C)C(=O)NC1CCN(C2=NS(=O)(=O)C(c3ccc(F)cc3)=C2C)CC1 (stereo not given) |
| 791 | Cc1cc(C(=O)N2CCCCC2)c2c(=O)n(CC(=O)Nc3cccc(C#N)c3)c(=O)n(C)c2n1 |
| 868 | COc1ccc2[nH]cc(CCNC(=O)c3cn(-c4ccc(F)cc4)nn3)c2c1 |
| 695 | Cn1c(C2CCN(C(=O)Nc3cc(F)ccc3F)CC2)cc(=O)n2nccc12 |
| 946 | N#CCCSc1ccccc1NC(=O)c1ccc(S(=O)(=O)N2CCCCCC2)cc1 |
| 653 | Cc1oc2c(c1C(=O)NCCc1ccccc1)C1=NC(C)(C)CN1C=N2 |
| 852 | COc1ccc(CNC(=O)c2ccc3c(=O)n(-c4ccc(F)cc4)c(N4CCCC4)nc3c2)cc1 |
| 629 | CCOC(=O)N1CCN(c2cc(C(=O)O)c3cc(NC(=O)COc4ccccc4)ccc3n2)CC1 |

| RP-LC retention time [s] | SMILES |
| --- | --- |
| 1210 | Cc1ccc(-c2noc(Cc3nnc(-c4cccc(Cl)c4)o3)n2)cc1C |
| 819 | Cc1ccc(NC(=O)CN2C(=O)NC(c3ccccc3Cl)C3=C2COC3=O)cc1C (stereo not given) |
| 1360 | Cc1cccc(OCc2nc(C)c(C(=O)Nc3nc(-c4ccc(Cl)cc4)cs3)s2)c1 |
| 584 | COc1cccc(CCC(=O)N2CCn3cnnc3C2)c1 |
| 733 | CC(C)N1C(=O)c2cccnc2Sc2cc(NC(=O)C3CC3)ccc21 |
| 603 | O=C(NCCCn1ccnc1)C1CC(=O)N(CCc2c[nH]c3ccc(Cl)cc23)C1 (stereo not given) |
| 675 | COCC(=O)NC1CCC12CCN(C(=O)CC(C)C)CC2 (stereo not given) |
| 812 | Cc1ccc(NC(=O)C2CCN(S(=O)(=O)c3ccc4c(c3)NC(=O)C(C)O4)CC2)c(Cl)c1 (stereo not given) |
| 704 | CCN1CCCn2cc(S(=O)(=O)Nc3cc(OC)ccc3OC)cc2C1=O |
| 554 | O=c1c(=O)n(-c2ccc(Br)cc2)ccn1Cc1ccncc1 |
| 760 | COc1c(NC=O)c2c(c([N+](=O)[O-])c1OC)C(=O)OC2 |
| 624 | O=C(NCC1(O)CCCC1)C1CC(=O)N(c2ccccc2)C1 (stereo not given) |
| 740 | NC(=O)C(c1ccccc1)(c1ccccc1)[C@@H]1CCN(CCc2ccc3c(c2)CCO3)C1 |
| 876 | CCCN(CC1CCOC1)C(=O)Nc1cccc(Br)c1 (stereo not given) |
| 812 | CCOc1ccc(C(=O)N2CCN(c3cc(-c4cccs4)[nH]n3)CC2)cc1 |
| 590 | C(=N/NC1=NCCN1)/c1c2ccccc2c(/C=N\NC2=NCCN2)c2ccccc12 |
| 682 | O=C(NCCc1csc(C2CCCN(C(=O)C3CC3)C2)n1)C1CCC1 (stereo not given) |
| 1110 | CCOc1ccc(N2CCCCn3c2nc2c3c(=O)n(CC(C)C)c(=O)n2C)cc1 |
| 1220 | CC(C)(C)c1ccc(-c2noc(Cn3c(=O)n(-c4cccc(F)c4)c(=O)c4sccc43)n2)cc1 |
| 934 | COc1ccc(Nc2c(-c3ccc(SC)cc3)nc3cnc(Br)cn23)cc1OC |
| 916 | COc1cccc(Cn2ccn3nc(-c4ccc(OC)c(OC)c4)cc3c2=O)c1 |
| 705 | CCCNC(=O)C1CCCN(c2nc3ncn(CC(=O)Nc4cc(F)ccc4C)c(=O)c3s2)C1 (stereo not given) |

| RP-LC retention time [s] | SMILES |
| --- | --- |
| 594 | COCCN1C(=O)[C@H]2CN(Cc3ccc(OC)cc3OC)C[C@H]2C1=O |
| 1070 | COc1ccc(NC(=O)c2cc3c(=O)n(CC(C)C)c4ccccc4n3n2)cc1F |
| 1090 | Cc1nc2cc(-c3noc(-c4ccc(Br)o4)n3)ccc2o1 |
| 781 | Cc1ccc(C)c(-c2csc(NC(=O)CCC(=O)O)n2)c1 |
| 793 | CCCNC(=O)N1CC(c2nc(-c3ccc(F)cc3)no2)C2(CCOCC2)C1 (stereo not given) |
| 1130 | CCCOc1nc2ccccc2nc1N1CCCC(C(=O)Nc2ccc(F)c(Cl)c2)C1 (stereo not given) |
| 1180 | Cn1c(SCC(=O)N2CCCc3ccccc32)nc2cc(-c3ccccc3)sc2c1=O |
| 993 | COc1ccccc1-c1noc(C2CCCN2C(=O)c2cccc(OC)c2OC)n1 (stereo not given) |
| 849 | COc1ccc(Cl)cc1S(=O)(=O)Nc1cccn2c(C3CCC3)nnc12 |
| 748 | COc1ccc(CNC(=O)CCc2nc3ccc(C)cc3c(=O)n2C)cc1 |
| 1170 | Cc1ccc(-c2noc(-c3cccc(S(=O)(=O)NCc4ccc(C)o4)c3)n2)cc1 |
| 576 | CC(C)NC(=O)N(C1CCOCC1)C1CN(C(=O)c2ccnn2C)C1 |
| 806 | Cc1ccc(-c2nc3nc(C)cc(C)n3c2Nc2c(C)cccc2C)cc1 |
| 733 | O=C(NC1CCCCC1)C1CC(=O)N(c2ccc3c(c2)CCN3C(=O)C2CC2)C1 (stereo not given) |
| 806 | Cc1ccc(-c2ccc(N3CCCC(C(=O)NCc4ccc(Br)cc4)C3)nn2)cc1 (stereo not given) |
| 835 | O=C1NC(=S)S/C1=C\c1ccccc1C(=O)O |
| 894 | CCNC(=O)Nc1ccc2c(c1)CN(S(=O)(=O)c1ccc3c(c1)CCC3)CCO2 |
| 1160 | Cc1sc(C)c(S(=O)(=O)NCc2ccc(F)cc2)c1-c1cc(C(F)(F)F)on1 |
| 812 | O=C(N1CCCC(c2nnc(-c3cccs3)o2)C1)C1(c2ccccc2)CCOCC1 (stereo not given) |
| 1040 | Cc1ccc(C)c(N2CCN(c3ccnc(SCC(=O)Nc4cc(F)ccc4C)n3)CC2)c1 |

| SMILES | RP-LC retention time [s] |
| --- | --- |
| CCc1c(C(=O)O)nnn1Cc1ccccc1C | 728 |
